{"source": "paper PMC11522928", "about": "(JACS Au, 2024)", "key": {"[1]": {"test_system": "chick embryos given CoCl2", "assay": "CoCl2 ischemia / hypoxia study, embryo survival", "format": "in vivo, Gallus gallus domesticus", "details": "CoCl2 hexahydrate 1.2 mg, 0.54 M"}, "chick embryos": {"test_system": "chick embryos", "assay": "Embryo survival after dosing on the CAM"}, "[2]": {"test_system": "chick chorioallantoic membrane (CAM) vasculature", "assay": "Chick chorioallantoic membrane", "format": "in vivo, Gallus gallus domesticus", "details": "0.75 mg/kg (18.87 µM; antibody 1 mg/mL), n = 2-3, 24 h"}}, "data": [{"molecule": "O.O.O.O.O.O.[Cl-].[Cl-].[Co+2]", "note": "[CoCl2, CoCl2 hexahydrate]", "values": [{"measurement": "mortality of embryos treated only with CoCl2", "setting": "[1]; 32× LD50, 12 h, n = 4", "result": 100, "unit": "%"}, {"measurement": "mortality of embryos treated only with CoCl2", "setting": "[1]; 32× LD50, 24 h, n = 8", "result": 100, "unit": "%"}]}, {"molecule": "COC(=O)N[C@@H](Cc1ccccc1)C(=O)N[C@@H](Cc1ccc(NS(=O)(=O)O)cc1)c1csc(-c2cccs2)n1", "note": "[Razuprotafib]", "values": [{"measurement": "embryo survival", "setting": "chick embryos; dosed at 400 μM, n = 2", "result": 50, "unit": "%"}, {"measurement": "lethality, embryos dead / embryos tested", "setting": "chick embryos; dosed at 40 mM on the CAM", "result": "7/8"}]}, {"molecule": "Ang-1: human Ang-1 protein (Gibco) (protein, UniProt Q15389 16-498, looked up) Angiopoietin-1: HIGCSNQRRSPENSGRRYNRIQHGQCAYTFILPEHDGNCRESTTDQYNTNALQRDAPHVEPDFSSQKLQHLEHVMENYTQWLQKLENYIVENMKSEMAQIQQNAVQNHTATMLEIGTSLLSQTAEQTRKLTDVETQVLNQTSRLEIQLLENSLSTYKLEKQLLQQTNEILKIHEKNSLLEHKILEMEGKHKEELDTLKEEKENLQGLVTRQTYIIQELEKQLNRATTNNSVLQKQQLELMDTVHNLVNLCTKEGVLLKGGKREEEKPFRDCADVYQAGFNKSGIYTIYINNMPEPKKVFCNMDVNGGGWTVIQHREDGSLDFQRGWKEYKMGFGNPSGEYWLGNEFIFAITSQRQYMLRIELMDWEGNRAYSQYDRFHIGNEKQNYRLYLKGHTGTAGKQSSLILHGADFSTKDADNDNCMCKCALMLTGGWWFDACGPSNLNGMFYTAGQNHGKLNGIKWHYFKGPSYSLRSTTMMIRPLDF", "values": [{"measurement": "whether CAM results recapitulate those of KU04212, in words", "setting": "[2]", "result": "None of these agents gave results consistent with KU04212"}]}]}
